Structures can show the parent of a compound that is named as a salt. Where two headings read alike, the source gives them in different places. Marks after values point to notes of the source that are not given here.
How the values were obtained:
[1] = tested on: P. aeruginosa ATCC 27853; assay: Minimum bactericidal concentration (MBC), P. aeruginosa; type: cell-based
Description: (§1) To evaluate the bactericidal action of the antibacterial composition based on light isotope ^64Zne the minimum bactericidal concentration (MBC) was determined by plating out 0.1 ml of the contents of each tube containing the antibacterial composition on Mueller-Hinton medium. The incubation was at 37° C. for 24 h.
(§2) The MBC of the test samples was determined as the lowest concentration at which there was no growth on Mueller-Hinton agar medium.
(§3) The conditions of the experiment were like those for Zn-64 compound.

[2] = tested on: S. aureus ATCC 25923; assay: Minimum bactericidal concentration (MBC), S. aureus; type: cell-based
Description: as §1, §2, §3

[3] = tested on: S. aureus ATCC 25923; assay: MIC (bacteriostatic activity), S. aureus; type: cell-based; conditions: Table 5
Source text: as §3

[4] = tested on: E. coli ATCC 25922; assay: Minimum bactericidal concentration (MBC), E. coli; type: cell-based
Description: as §1, §2, §3

[5] = tested on: P. aeruginosa ATCC 27853; assay: MIC (bacteriostatic activity), P. aeruginosa; type: cell-based
Source text: as §3

[6] = tested on: E. coli ATCC 25922; assay: MIC (bacteriostatic activity), E. coli; type: cell-based; conditions: Table 5
Source text: as §3

[7] = tested on: influenza virus; assay: In vitro reproduction of influenza virus; type: cell-based
[8] = tested on: BVDV—bovine viral diarrhea virus; type: cell-based; conditions: in vitro
[9] = tested on: herpes virus; type: cell-based; conditions: in vitro
[10] = tested on: type 1 diabetes; assay: Development of type 1 diabetes in vivo
[11] = tested on: MM-4 mouse melanoma cells; assay: In vitro analysis of viability of MM-4 mouse melanoma cells; type: cell-based
Source text: A second study was done on mouse model of lymphocytic leukemia, strain of L1210 leukemia cells, mouse melanoma model (MM-4 cell line derived from mouse melanoma cells of strain B16). Typical results are below.

[12] = tested on: animals on a high-fat diet (DIO); assay: Diet induced obesity model (animals on a high-fat diet); type: in vivo, rats
Source text: The preclinical study of the effects of Zn-64 Asp on key pathogenetic links in the development and progression of obesity in diet-induced obesity models provides strong ground for efficient use of Zn-64 Asp as therapeutic agent in the treatment of overweight and obese patients.

[13] = tested on: rat models of Aβ1-40-induced AD; assay: Rat model of Alzheimer's disease induced by infusion of Aβ 1-40; type: in vivo, rats
Source text: The Effect of ^64Zn-Asp on Cognitive Symptomatology in Rats with Different Models of Alzheimer's Disease Induced by Infusion of a Mix of Beta-Amyloid Peptides

[14] = tested on: MMP-2; assay: Activities of latent and active forms of metalloproteinase 2 in MM-4 cells
[15] = tested on: pro-inflammatory (IL-1, IL-6, IL-12, IFN-γ) and anti-inflammatory (IL-4, IL-10, TGF) cytokines; assay: Cytokine profile in the serum of experimental animals; type: in vivo, rats; conditions: M ± m, n = 10
Source text: As mentioned above, the pathogenesis of obesity is accompanied by a systemic chronic inflammatory process, the intensity of which can be assessed by the serum levels of pro- and anti-inflammatory cytokines.

[16] = tested on: pro-inflammatory (IL-1, IL-6, IL-12, IFN-γ) and anti-inflammatory (IL-4, IL-10, TGF) cytokines; conditions: adipose tissue, M ± m, n = 10
Source text: Given the above, the next phase was to find out whether the administration of Zn-64 stable isotope in aspartate form influences the cytokine profile in obese animals.

[17] = tested on: rats with LPS-induced Parkinson's disease; assay: LPS-induced Parkinson's disease in rats; type: in vivo
Source text: Effects of ^64Zn-KLS-1 on Local and Systemic Immune Reactivity, Behavioural and Motor Functions in Rats with LPS-Induced Experimental Parkinsonism

[18] = tested on: MMP-9; assay: Activities of latent and active forms of metalloproteinase 9 in MM-4 cells; conditions: 16.69 μg/ml
[19] = tested on: MM-4 cells; assay: Immunocytochemistry of Bcl-2, Bax and p53 expression in MM-4 cells; type: cell-based, mouse
[20] = Glucose and pancreatic islets in vivo, model not given (section on obesity and type 1 & 2 diabetes)
[21] = tested on: Epstein-Barr virus; assay: Cytotoxicity and antiviral activity against Epstein-Barr virus
[22] = tested on: RNA and DNA synthesis; assay: Inhibition of RNA and DNA synthesis; type: cell-based
[23] = tested on: Epstein-Barr virus
[24] = animals with AD, therapeutic administration
[25] = LPS-induced Parkinson's disease

O=S(=O)([O-])[O-].[Zn+2] [Natural zinc - sulfate, reference compound]
MBC ([1]; Table 6): >750 mcg zinc/ml | MBC ([2]; Table 6): >750 mcg zinc/ml | MIC [3]: 93.75 zinc mcg/ml | MBC ([4]; Table 6): >750 mcg zinc/ml | MIC ([5]; Table 5): 750 zinc mcg/ml | MIC [6]: 187.5 zinc mcg/ml

N[C@@H](CCC(=O)[O-])C(=O)[O-].[Zn+2] [Zinc glutamate, reference compound]
reproduction of influenza virus [7]: effectively inhibited | reproduction of surrogate model of HCV (BVDV) virus [8]: effectively inhibited | reproduction of herpes virus [9]: effectively inhibited

NC(CC(=O)[O-])C(=O)[O-].[64Zn+2] (centres unmarked) [Zn64 Aspartate, ^64Zne aspartate]
MBC ([1]; 37° C. 24 h, Table 4): >750 mcg ^64Zne/ml | MBC ([2]; 37° C. 24 h, Table 4): 0.023* mcg ^64Zne/ml | decrease of glucose concentration [10]: 26% | decrease of glycosylated hemoglobin [10]: 30% | increase of serum insulin content [10]: 13% | suppressed proliferation of MM-4 cells compared with the control ([11]; 16.69 μg/ml): 22.2% | reduction in the number of live melanoma cells compared with the control ([11]; 25.03 μg/ml): 49.2% | IC20 ([11]; MM-4 cells): 16.69 µg/mL | IC50 ([11]; MM-4 cells): 25.03 µg/mL | fatty degeneration (exocrine part of the pancreas) ([12]; DIO group): Disappearance | divalent metal ions (zinc, copper, manganese) in muscles, kidneys and liver ([12]; animal models of obesity): restoration of their normal physiological levels | activity of antioxidant enzymes (superoxide dismutase and catalase) ([12]; animals on a high fat diet): increased activity | levels of lipid peroxidation products and protein oxidative modification ([12]; animals on a high fat diet): decrease | central and peripheral serotonin levels compared to untreated animal models of obesity ([12]; animals on a high-fat diet): restoration | decrease of the area of hepatocytes compared to the group with obesity ([12]; animals on a high-fat diet): 41% | increase of the cross-sectional surface area of the islets of Langerhans compared with the obesity group ([12]; animals on a high-fat diet): 43% | lipid metabolism ([12]; animals on a high-fat diet): Improvement | serotonin levels in the brain ([12]; animals on a high-fat diet): An increase | weight and the amount of food consumed compared to the untreated animals ([12]; animals on a high-fat diet): Reduction | cognitive function ([13]; AD models): significantly improved | body weight, water and feed intake ([13]; AD rats treated for 10 days): restored | neuroinflammation ([13]; Aβ1-40-induced AD): almost complete resolution | staining intensity of TH-immuno-positive cells ([13]; Aβ1-40 AD rats, hippocampal dopaminergic neurons): increased | absolute number of circulating leukocytes [13, 24]: complete normalization | neutrophilic lymphocytic coefficient (NLC) [13, 24]: complete normalization | decrease in the activity of active MMP-2 compared with the control ([14]; 16.69 μg/ml): 66.8% | decrease in the activity of latent pro-MMP-2 compared with the control ([14]; 16.69 μg/ml): 76.5% | suppression of the activity of MMP-2 compared with the control ([14]; 25.03 μg/ml): 76% | IFN-γ level ([15]; control animals (C)): 4.6 ± 0.6 RU/mg protein | IL-1 level ([15]; control animals (C)): 3.5 ± 0.7 RU/mg protein | IL-4 level ([15]; control animals (C)): 4.6 ± 0.8 RU/mg protein | IL-6 level ([15]; control animals (C)): 4.3 ± 0.2^ RU/mg protein | IL-10 level ([15]; control animals (C)): 4.1 ± 0.5 RU/mg protein | IL-12 level ([15]; control animals (C)): 0.3 ± 0.04 RU/mg protein | TGF level ([15]; control animals (C)): 4.1 ± 0.4 RU/mg protein | IFN-γ level ([15]; diet induced obesity (DIO)): 4.1 ± 1.2 RU/mg protein | IL-1 level ([15]; diet induced obesity (DIO)): 4.2 ± 0.4 RU/mg protein | IL-4 level ([15]; diet induced obesity (DIO)): 5.6 ± 1.6 RU/mg protein | IL-6 level ([15]; diet induced obesity (DIO)): 5.1 ± 0.4 RU/mg protein | IL-10 level ([15]; diet induced obesity (DIO)): 6.8 ± 1.1 # RU/mg protein | IL-12 level ([15]; diet induced obesity (DIO)): 2.4 ± 0.06 # RU/mg protein | TGF level ([15]; diet induced obesity (DIO)): 5.7 ± 0.3 # RU/mg protein | IFN-γ level ([16]; control animals (C)): 5.0 ± 0.8^ RU/mg protein | IL-1 level ([16]; control animals (C)): 4.9 ± 1.7^ RU/mg protein | IL-4 level ([16]; control animals (C)): 5.0 ± 0.4^ RU/mg protein | IL-6 level ([16]; control animals (C)): 5.4 ± 0.3^ RU/mg protein | IL-10 level ([16]; control animals (C)): 4.9 ± 0.2^ RU/mg protein | IL-12 level ([16]; control animals (C)): 1.0 ± 0.03 RU/mg protein | TGF level ([16]; control animals (C)): 5.1 ± 0.6^ RU/mg protein | IFN-γ level ([16]; diet induced obesity (DIO)): 4.9 ± 0.8 RU/mg protein | IL-1 level ([16]; diet induced obesity (DIO)): 5.8 ± 1.8 RU/mg protein | IL-4 level ([16]; diet induced obesity (DIO)): 5.1 ± 1.2 RU/mg protein | IL-6 level ([16]; diet induced obesity (DIO)): 6.1 ± 0.7 RU/mg protein | IL-10 level ([16]; diet induced obesity (DIO)): 5.8 ± 0.8 RU/mg protein | IL-12 level ([16]; diet induced obesity (DIO)): 1.99 ± 0.01 RU/mg protein | TGF level ([16]; diet induced obesity (DIO)): 5.2 ± 0.9 RU/mg protein | dopaminergic neuron loss [17, 25]: Prevention | harmful side effects [17, 25]: absence | local and systemic inflammation [17, 25]: Inhibition | metabolic activity of microglia [17, 25]: increase | number of dopaminergic neurons in the substantia nigra ([17]; LPS-induced Parkinson's disease, rats): virtually full restoration | systemic inflammatory responses ([17]; therapeutic administration, LPS-induced parkinsonism): reduces | decrease in the activity of active MMP-9 compared with the control [18]: 23.8% | decrease in the activity of latent pro-MMP-9 compared with the control [18]: 61.2% | decrease in the expression of Bcl-2 vs. control ([19]; 16.69 μg/ml): 69.5% | expression of pro-apoptotic proteins Bax and p53 ([19]; 16.69 μg/ml): did not have any effect | expression level of p53 (Y-5 clone) ([19]; 25.03 μg/ml): does not influence | increased expression level of Bax compared with the control ([19]; 25.03 μg/ml): 8.9 times | increased expression level of p53 (DO-7 clone) compared with the control ([19]; 25.03 μg/ml): 9.5 times | expression of anti-apoptotic protein Bcl-2 ([19]; concentration not given): does not have any effect | glucose concentration compared to the control group [20]: drop | increase of insulin producing pancreatic islets area [20]: more than 100% | MBC ([4]; 37° C. 24 h, Table 4): 0.73* mcg ^64Zne/ml | bacteriostatic activity (in words) [5]: best results | assessment of cytotoxicity and antiviral activity for anti-EBV infection [21]: most promising

O=C(O)CC(O)(CC(=O)O)C(=O)O [^64Zne citrate]
RNA and DNA synthesis [22]: Inhibition | assessment of cytotoxicity and antiviral activity for anti-EBV infection [23]: most promising
